Data set [1] is described as follows: Compound stability in human liver microsomes. It is filed as in vitro ADME. The following applies: pH 7.4; for CLint scaled at 5 μM: liver microsomes, in vivo CLint extrapolated from human liver microsome incubation; for half-life at 5 μM: human liver microsomes 0.5 mg protein/mL, compound 5 μM, NADPH 1.0 mM, 37° C., read-out: Human T1/2. Here is the method: (§1) The LC/MS/MS system used in the analysis consists of an Agilent 1200 Series vacuum degasser, binary pump, well-plate autosampler, thermostatted column compartment, the Agilent G6430 Triple Quadrupole Mass Spectrometer with an electrosprayionization (ESI) source. Quantitative analysis was carried out using MRM mode. The parameters for MRM transitions are in the Table A.
(§2) An Agilent XDB-C18, 2.1×30 mm, […] column was used for the analysis. 5 μL of the samples were injected. Analysis condition: The mobile phase was 0.1% formic acid in water (A) and 0.1% formic acid in methanol (B). The flow rate was 0.4 mL/min. And the gradient of Mobile phase was in the Table B.
(§3) Alternatively, an Agilent 6330 series LC/MS/MS spectrometer equipped with G1312A binary pumps, a G1367A autosampler and a G1314C UV detector were used in the analysis. An ESI source was used on the LC/MS/MS spectrometer. The analysis was done in positive ion mode as appropriate and the MRM transition for each analyte was optimized using standard solution. A Capcell MP-C18 100×4.6 mm I.D., […] column (Phenomenex, Torrance, Calif., USA) was used during the analysis. The mobile phase was 5 mM ammonia acetate, 0.1% MeOH in water (A): 5 mM ammonia acetate, 0.1% MeOH in acetonitrile (B) (70:30, v/v). The flow rate was 0.6 mL/min. Column was maintained at ambient temperature. 20 μL of the samples were injected.
(§4) Human or rat liver microsomes incubations were conducted in duplicate in polypropylene tubes. The typical incubation mixtures consisted of human or rat liver microsomes (0.5 mg protein/mL), compounds of interest (5 μM) and NADPH (1.0 mM) in a total volume of 200 μL potassium phosphate buffer (PBS, 100 mM, pH 7.4). Compounds were dissolved in DMSO and diluted with PBS such that the final concentration of DMSO was 0.05%. The enzymatic reactions were commenced with the addition of protein after a 3-min preincubation and incubated in a water bath open to the air at 37° C. Reactions were terminated at various time points (0, 5, 10, 15, 30, 60 min) by adding equal volume of ice-cold acetonitrile. The samples were stored at −80° C. until LC/MS/MS assays.
(§5) The concentrations of compounds in the incubation mixtures of human or rat liver microsomes were determined by a LC/MS/MS method. The ranges of the linearity in the concentration range were determined for each tested compounds.
(§6) A parallel incubation was performed using denatured microsomes as the negative control, and reactions were terminated at various time points (0, 15, 60 min) after incubation at 37° C.
(§7) Dextromethorphan (70 μM) was selected as the positive control, and reactions were terminated at various time points (0, 5, 10, 15, 30, 60 min) after incubation at 37° C. Both positive and negative control samples were included in each assay to ensure the integrity of the microsomal incubation system.
(§8) The concentrations of compounds in human or rat liver microsome incubations were plotted as a percentage of the relevant zero time point control for each reaction. The in vivo CLint were extrapolated (ref.: Naritomi, Y.; Terashita, S.; Kimura, S.; Suzuki, A.; Kagayama, A.; and Sugiyama, Y.; Prediction of human hepatic clearance from in vivo animal experiments and in vitro metabolic studies with liver microsomes from animals and humans. Drug Metab. Dispos., 2001, 29: 1316-1324).

Data set [2] in a line: Pharmacokinetic profiles in rats. The settings on record: for Cl/F / AUC(0-t) / half-life / Vd: iv dosing 1 mg/kg; for F: oral vs iv (iv 1 mg/kg; p.o. generally 5 or 10 mg/kg); for AUC(0-t) / half-life / Vd: rat, plasma; for Vd: read-out: Vss. The format is in vivo, rat. On the procedure:
The compounds disclosed herein are assessed in pharmacokinetic studies in mice, rats, dogs or monkeys. The compounds are administered as a water solution, 2% HPMC+1% TWEEN®80 in water solution, 5% DMSO+5% solutol in saline, 4% MC suspension or capsule. For the intravenous administration, the animals are generally given at 1 or 2 mg/kg dose. For the oral (p.o.) dosing, mice and rats are generally given 5 or 10 mg/kg dose, and dogs and monkeys are generally given 10 mg/kg dose. The blood samples (0.3 mL) are drawn at 0.25, 0.5, 1.0, 2.0, 3.0, 4.0, 6.0, 8.0, 12 and 24 h time points or 0.083, 0.25, 0.5, 1.0, 2.0, 4.0, 6.0, 8.0 and 24 h time points and centrifuged at 3,000 or 4000 rpm for 2 to 10 min. The plasma solutions are collected, stored at −20° C. or −70° C. until analyzed by LC/MS/MS as described above.

The nature of data set [3]: Compound stability in rat liver microsomes. It is filed as in vitro ADME. The following applies: pH 7.4; for CLint scaled at 5 μM: liver microsomes, in vivo CLint extrapolated from rat liver microsome incubation; for half-life at 5 μM: rat liver microsomes 0.5 mg protein/mL, compound 5 μM, NADPH 1.0 mM, 37° C., read-out: Rat T1/2. On the procedure:
as §1, §2, §3, §4, §5, §6, §7, §8

The target in another data set is PI3K (p110δ/p85α) (h) (Homo sapiens (Human), UniProt O00329). The data set can be described thus: PI3K (p110δ/p85α) (h) non-radioactive HTRF kinase assay. The format is biochemical. The following applies: performed at Millipore UK Ltd. Here is the method:
The above assay procedure can be used to determine the IC50 for inhibition and/or the inhibition constant, Ki.
PI3K (p110δ/p85α) (h) [Non-Radioactive Assay]
PI3K (p110δ/p85α) (h) is incubated in assay buffer containing 10 μM phosphatidylinositol-4, 5-bisphosphate and MgATP (concentration as required). The reaction is initiated by the addition of the MgATP mix. After incubation for 30 minutes at room temperature, the reaction is stopped by the addition of stop solution containing EDTA and biotinylated phosphatidylinositol-3,4,5-trisphosphate. Finally, detection buffer is added, which contains europium-labelled anti-GST monoclonal antibody, GST-tagged GRP1 PH domain and streptavidin-allophycocyanin. The plate is then read in timeresolved fluorescence mode and the homogenous time-resolved fluorescence (HTRF) signal is determined according to the formula HTRF=10000×(Em665 nm/Em620 nm).
The kinase assays described herein were performed at Millipore UK Ltd, Dundee Technology Park, Dundee DD2 1SW, UK.

PI3K (p110δ/p85α) (h), sequence (O00329 whole entry): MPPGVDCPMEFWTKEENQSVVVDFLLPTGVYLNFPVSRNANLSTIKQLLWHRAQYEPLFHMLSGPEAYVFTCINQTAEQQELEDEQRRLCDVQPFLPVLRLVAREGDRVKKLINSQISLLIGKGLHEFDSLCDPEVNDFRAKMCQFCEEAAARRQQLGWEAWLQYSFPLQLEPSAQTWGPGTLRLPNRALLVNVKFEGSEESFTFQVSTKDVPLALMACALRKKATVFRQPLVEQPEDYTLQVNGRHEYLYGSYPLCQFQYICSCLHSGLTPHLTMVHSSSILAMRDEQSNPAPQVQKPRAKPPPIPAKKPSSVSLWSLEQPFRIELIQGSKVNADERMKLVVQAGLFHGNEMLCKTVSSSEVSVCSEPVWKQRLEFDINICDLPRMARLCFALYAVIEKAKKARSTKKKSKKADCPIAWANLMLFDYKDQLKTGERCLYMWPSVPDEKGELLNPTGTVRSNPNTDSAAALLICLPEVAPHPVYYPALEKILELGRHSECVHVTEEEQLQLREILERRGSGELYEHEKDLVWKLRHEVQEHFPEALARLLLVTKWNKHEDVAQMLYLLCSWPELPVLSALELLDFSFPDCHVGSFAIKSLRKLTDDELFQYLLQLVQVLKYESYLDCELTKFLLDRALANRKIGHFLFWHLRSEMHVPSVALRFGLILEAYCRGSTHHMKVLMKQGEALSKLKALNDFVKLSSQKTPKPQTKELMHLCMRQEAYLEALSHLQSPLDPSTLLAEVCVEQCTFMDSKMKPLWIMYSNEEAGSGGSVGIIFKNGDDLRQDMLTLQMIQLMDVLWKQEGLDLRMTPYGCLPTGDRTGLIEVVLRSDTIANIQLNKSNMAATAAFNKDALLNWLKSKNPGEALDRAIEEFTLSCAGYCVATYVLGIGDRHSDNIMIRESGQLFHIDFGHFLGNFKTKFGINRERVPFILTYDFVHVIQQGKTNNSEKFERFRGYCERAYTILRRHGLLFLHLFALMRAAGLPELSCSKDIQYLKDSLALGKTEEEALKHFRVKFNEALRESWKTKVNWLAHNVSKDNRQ
PI3K (p110δ/p85α) (h), sequence (P27986 whole entry partner): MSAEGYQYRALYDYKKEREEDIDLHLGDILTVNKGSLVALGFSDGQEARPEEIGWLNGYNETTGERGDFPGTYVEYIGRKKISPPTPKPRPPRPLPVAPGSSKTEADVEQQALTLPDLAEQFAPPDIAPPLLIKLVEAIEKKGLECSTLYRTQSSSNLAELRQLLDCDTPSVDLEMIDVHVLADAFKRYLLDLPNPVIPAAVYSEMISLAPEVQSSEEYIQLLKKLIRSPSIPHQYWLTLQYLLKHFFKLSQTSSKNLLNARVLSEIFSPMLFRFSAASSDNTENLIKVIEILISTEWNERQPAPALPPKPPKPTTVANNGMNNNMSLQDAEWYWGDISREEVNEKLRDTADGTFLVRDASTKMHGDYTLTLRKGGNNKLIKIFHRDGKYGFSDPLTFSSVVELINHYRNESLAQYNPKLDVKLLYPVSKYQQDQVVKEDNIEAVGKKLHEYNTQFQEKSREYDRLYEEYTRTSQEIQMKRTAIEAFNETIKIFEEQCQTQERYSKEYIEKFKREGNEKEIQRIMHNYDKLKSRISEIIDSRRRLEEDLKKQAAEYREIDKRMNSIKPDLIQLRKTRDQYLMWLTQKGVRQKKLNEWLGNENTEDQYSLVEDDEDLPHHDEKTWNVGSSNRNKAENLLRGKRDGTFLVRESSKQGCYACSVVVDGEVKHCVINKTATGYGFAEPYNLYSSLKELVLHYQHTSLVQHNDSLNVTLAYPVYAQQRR

`CC[C@H](Nc1ncnc(N)c1-c1nc(C)no1)c1cc2cccc(F)c2c(=O)n1C1CC1` [Ex. 1, (S)-3-(1-((6-amino-5-(3-methyl-1,2,4-oxadiazol-5-yl)pyrimidin-4-yl)amino)propyl)-2-cyclopropyl-8-fluoroisoquinolin-1(2H)-one]: in data set [1], the CLint scaled at 5 μM is 243 mL/min/kg and the half-life at 5 μM came out at 0.17 h. In data set [2], this molecule had a Cl/F of 93 mL/min/kg, an F of 46.34%, an AUC(0-t) of 178 ng·h/mL and a half-life of 0.63 h. In data set [2], the Vd stood at 3.99 L/kg. Also, in data set [3], the CLint scaled at 5 μM is 219 mL/min/kg and the half-life at 5 μM is 0.189 h. For the same molecule, the IC50 on PI3K (p110δ/p85α) (h) stood at 5 nM.
As to `CC[C@H](Nc1ncnc(N)c1-c1nc(C)no1)c1cc2cccc(C)c2c(=O)n1-c1ccccc1` [Ex. 2, (S)-3-(1-((6-amino-5-(3-methyl-1,2,4-oxadiazol-5-yl)pyrimidin-4-yl)amino)propyl)-8-methyl-2-phenylisoquinolin-1(2H)-one], in data set [1], the CLint scaled at 5 μM was 840 mL/min/kg and the half-life at 5 μM came to 0.0345 h. In data set [2], this molecule had a Cl/F of 79 mL/min/kg, an F of 46.57%, an AUC(0-t) of 215 ng·h/mL and a half-life of 1.16 h. For the same molecule, in data set [2], the Vd was found to be 4.42 L/kg. For the same molecule, in data set [3], the CLint scaled at 5 μM was 418 mL/min/kg and the half-life at 5 μM worked out at 0.099 h. Moreover, at PI3K (p110δ/p85α) (h), the concentration for half-maximal inhibition (IC50) turned out to be 2 nM.
As for `CC[C@H](Nc1ncnc(N)c1-c1nc(C)no1)c1cc2cccc(Cl)c2c(=O)n1C1CC1` [Ex. 7, (S)-3-(1-((6-amino-5-(3-methyl-1,2,4-oxadiazol-5-yl)pyrimidin-4-yl)amino)propyl)-8-chloro-2-ccyclopropylisoquinolin-1(2H)-one], in data set [1], the CLint scaled at 5 μM is 147 mL/min/kg and the half-life at 5 μM was 0.197 h. Moreover, in data set [2], the Cl/F worked out at 54.3 mL/min/kg, the F is 42.95%, the AUC(0-t) came out at 307 ng·h/mL and the half-life is 2.3 h. In addition, the Vd in data set [2] came to 7.96 L/kg. In addition, in data set [3], the CLint scaled at 5 μM is 250 mL/min/kg and the half-life at 5 μM stood at 0.165 h. Besides, the IC50 at PI3K (p110δ/p85α) (h) came to 4 nM.
With `C[C@H](Nc1ncnc(N)c1-c1nnn(C)n1)c1cc2cccc(Cl)c2c(=O)n1C1CC1` [Ex. 12, (S)-3-(1-((6-amino-5-(2-methyl-2H-tetrazol-5-yl)pyrimidin-4-yl)amino)ethyl)-8-chloro-2-cyclopropylisoquinolin-1(2H)-one], in data set [2], the Cl/F turned out to be 30 mL/min/kg, the F is listed as 32.09%, the AUC(0-t) was 555 ng·h/mL and the half-life is 0.7 h. For the same molecule, the Vd in data set [2] is 1.42 L/kg. Moreover, the IC50 at PI3K (p110δ/p85α) (h) was 12 nM.
With `CC[C@H](Nc1ncnc(N)c1-c1noc(C)n1)c1cc2cccc(-c3cnn(C)c3)c2c(=O)n1C1CC1` [Ex. 31, (S)-3-(1-((6-amino-5-(5-methyl-1,2,4-oxadiazol-3-yl)pyrimidin-4-yl)amino)propyl)-2-cyclopropyl-8-(1-methyl-1H-pyrazol-4-yl)isoquinolin-1(2H)-one], in data set [1], the CLint scaled at 5 μM was 18.9 mL/min/kg and the half-life at 5 μM amounted to 1.54 h. In data set [2], this molecule showed a Cl/F of 17.3 mL/min/kg, an F of 139.0%, an AUC(0-t) of 934 ng·h/mL and a half-life of 2.27 h. For the same molecule, the Vd in data set [2] stood at 2.9 L/kg. For the same molecule, in data set [3], the intrinsic clearance (CLint scaled) at 5 μM was 26.1 mL/min/kg and the half-life at 5 μM amounted to 1.59 h.
`CC[C@H](Nc1ncnc(N)c1-c1nc(C)no1)c1cc2cccc(-c3cnn(C)c3)c2c(=O)n1C1CC1` [Ex. 32, (S)-3-(1-((6-amino-5-(3-methyl-1,2,4-oxadiazol-5-yl)pyrimidin-4-yl)amino)propyl)-2-cyclopropyl-8-(1-methyl-1H-pyrazol-4-yl)isoquinolin-1(2H)-one]: in data set [1], the CLint scaled at 5 μM is 23.4 mL/min/kg and the half-life at 5 μM turned out to be 1.24 h. Also, in data set [2], the Cl/F came out at 24.3 mL/min/kg, the F was determined as 74.2%, the AUC(0-t) is 688 ng·h/mL and the half-life is 1.49 h. The Vd in data set [2] came out at 2.42 L/kg. Moreover, in data set [3], the intrinsic clearance (CLint scaled) at 5 μM is 21.2 mL/min/kg and the half-life at 5 μM came out at 1.95 h.
Take `C[C@H](Nc1ncnc(N)c1-c1nnn(C)n1)c1cc2cccc(-c3cnn(C)c3)c2c(=O)n1C1CC1` [Ex. 33, (S)-3-(1-((6-amino-5-(2-methyl-2H-tetrazol-5-yl)pyrimidin-4-yl)amino)ethyl)-2-cyclopropyl-8-(1-methyl-1-pyrazol-4-yl)isoquinolin-1 (2H)-one]: in data set [1], the CLint scaled at 5 μM was 28.4 mL/min/kg and the half-life at 5 μM was determined as 1.02 h. In data set [2], the Cl/F came out at 12.7 mL/min/kg, the F is 163.6%, the AUC(0-t) worked out at 1300 ng·h/mL and the half-life is 1.62 h. The Vd in data set [2] was 1.9 L/kg. Also, in data set [3], the CLint scaled at 5 μM is 26.7 mL/min/kg and the half-life at 5 μM worked out at 1.55 h.
Consider `Cc1nc(-c2c(N)ncnc2N[C@@H](C)c2cc3cccc(-c4cnn(C)c4)c3c(=O)n2C2CC2)no1` [Ex. 34, (S)-3-(1-((6-amino-5-(5-methyl-1,2,4-oxadiazol-3-yl)pyrimidin-4-yl)amino)ethyl)-2-cyclopropyl-8-(1-methyl-1H-pyrazol-4-yl)isoquinolin-1 (2H)-one], for which, in data set [1], the CLint scaled at 5 μM was 42.4 mL/min/kg and the half-life at 5 μM was 0.684 h. In data set [2], this molecule showed a Cl/F of 23.7 mL/min/kg, an F of 96.4%, an AUC(0-t) of 678 ng·h/mL and a half-life of 1.54 h. Besides, in data set [2], the Vd stood at 2.74 L/kg. In data set [3], the CLint scaled at 5 μM was 29.9 mL/min/kg and the half-life at 5 μM was determined as 1.38 h.

The term CLint scaled denotes a measure of how fast metabolising enzymes remove a compound, apart from limits set by blood flow. A word on the AUC(0-t): it is exposure summed from dosing to a finite time, without extrapolation to infinity. The low end stands for less exposure, the high end for more exposure. One may read the IC50 as the point on the concentration scale where inhibition reaches its midpoint.

Values taken from patent US9512114B2, “Substituted aminopyrimidine compounds and methods of use” (Calitor Sciences, LLC, priority 2013, dated 2016).
